Assay results reported in PubChem BioAssay AID342 (DTP/NCI, 2004).
Several values for one entry are separate records, joined by “and”; a condition that tells them apart may be missing. Equal entries are not always repeated.

System: Swiss mice, Sarcoma 180 sc, mean tumor weight T/C
Test: NCI In Vivo Anticancer Drug Screen. Data for tumor model Sarcoma 180 (subcutaneous) in Swiss mice
Settings: endpoint: mean tumor weight, higher = larger tumour
Procedure, shortened: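 Tumor-bearing mice, transplantable tumor; readout survival or tumor size; result = T/C, treated vs vehicle control.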

c1ccc2[nH]cnc2c1
T/C (dose: 31.25 mg/kg/injection, schedule: Q#A X014 (ip), vehicle: carboxymethylcellulose (CMC)): 52 % of control | T/C (dose: 37.12 mg/kg/injection, schedule: Q01DX007 (ip), vehicle: carboxymethylcellulose (CMC)): 84 % of control | T/C (dose: 46.25 mg/kg/injection, schedule: Q01DX007 (ip), vehicle: carboxymethylcellulose (CMC)): 103 % of control | T/C (dose: 62.5 mg/kg/injection, schedule: Q#A X014 (ip), vehicle: carboxymethylcellulose (CMC)): 95 % of control | T/C (dose: 74.25 mg/kg/injection, schedule: Q01DX007 (ip), vehicle: carboxymethylcellulose (CMC)): 76 % of control | T/C (dose: 92.5 mg/kg/injection, schedule: Q01DX007 (ip), vehicle: carboxymethylcellulose (CMC)): 94 % of control | T/C (dose: 125.0 mg/kg/injection, schedule: Q#A X014 (ip), vehicle: carboxymethylcellulose (CMC)): 84 % of control | T/C (dose: 148.5 mg/kg/injection, schedule: Q01DX007 (ip), vehicle: carboxymethylcellulose (CMC)): 76 % of control | T/C (dose: 185.0 mg/kg/injection, schedule: Q01DX007 (ip), vehicle: carboxymethylcellulose (CMC)): 89 % of control | T/C (dose: 250.0 mg/kg/injection, schedule: Q#A X014 (ip), vehicle: carboxymethylcellulose (CMC)): 51 % of control | T/C (dose: 297.0 mg/kg/injection, schedule: Q01DX007 (ip), vehicle: carboxymethylcellulose (CMC)): 62 % of control

CC12CCC3C(CCC4CC=CCC43C)C1CCC2=O (stereo not given)
T/C (dose: 31.0 mg/kg/injection, schedule: Q01DX007 (sc), vehicle: steriod suspending solution): 102 % of control | T/C (dose: 62.5 mg/kg/injection, schedule: Q01DX007 (sc), vehicle: steriod suspending solution): 105 % of control | T/C (dose: 125.0 mg/kg/injection, schedule: Q01DX007 (sc), vehicle: steriod suspending solution): 107 % of control and 123 % of control | T/C (dose: 250.0 mg/kg/injection, schedule: Q01DX007 (sc), vehicle: steriod suspending solution): 95 % of control and 96 % of control

CCOC(C)C(/C=N/NC(N)=S)=NNC(N)=S (stereo not given)
T/C (dose: 15.0 mg/kg/injection, schedule: Q01DX007 (ip), vehicle: saline): 82 % of control | T/C (dose: 30.0 mg/kg/injection, schedule: Q01DX007 (ip), vehicle: saline): 37 % of control | T/C (dose: 60.0 mg/kg/injection, schedule: Q01DX007 (ip), vehicle: saline): 47 % of control | T/C (dose: 120.0 mg/kg/injection, schedule: Q01DX007 (ip), vehicle: saline): 20 % of control

Brc1ccc(-c2csc(Nc3nc(-c4ccc(Br)cc4)cs3)n2)cc1
T/C (dose: 200.0 mg/kg/injection, schedule: Q01DX007 (ip), vehicle: carboxymethylcellulose (CMC)): 56 % of control and 73 % of control | T/C (dose: 300.0 mg/kg/injection, schedule: Q01DX007 (ip), vehicle: carboxymethylcellulose (CMC)): 52 % of control and 60 % of control | T/C (dose: 675.0 mg/kg/injection, schedule: Q01DX007 (ip), vehicle: carboxymethylcellulose (CMC)): 31 % of control

C[C@]12CC[C@@H]3c4ccc(OC5CCCCO5)cc4CC[C@H]3[C@@H]1CC[C@@H]2O (stereo not given in full)
T/C (dose: 111.0 mg/kg/injection, schedule: Q01DX007 (ip), vehicle: steriod suspending solution): 55 % of control | T/C (dose: 166.6 mg/kg/injection, schedule: Q01DX007 (ip), vehicle: steriod suspending solution): 20 % of control | T/C (dose: 250.0 mg/kg/injection, schedule: Q01DX007 (ip), vehicle: steriod suspending solution): 24 % of control | T/C (dose: 375.0 mg/kg/injection, schedule: Q01DX007 (ip), vehicle: steriod suspending solution): 17 % of control

C=CCNc1ccc(C)cc1
T/C (dose: 30.0 mg/kg/injection, schedule: Q01DX007 (ip), vehicle: carboxymethylcellulose (CMC)): 72 % of control and 88 % of control | T/C (dose: 55.0 mg/kg/injection, schedule: Q01DX007 (ip), vehicle: carboxymethylcellulose (CMC)): 86 % of control | T/C (dose: 69.0 mg/kg/injection, schedule: Q01DX007 (ip), vehicle: carboxymethylcellulose (CMC)): 109 % of control | T/C (dose: 83.0 mg/kg/injection, schedule: Q01DX007 (ip), vehicle: carboxymethylcellulose (CMC)): 76 % of control | T/C (dose: 105.0 mg/kg/injection, schedule: Q01DX007 (ip), vehicle: carboxymethylcellulose (CMC)): 76 % of control and 83 % of control | T/C (dose: 125.0 mg/kg/injection, schedule: Q01DX007 (ip), vehicle: carboxymethylcellulose (CMC)): 26 % of control | T/C (dose: 157.0 mg/kg/injection, schedule: Q01DX007 (ip), vehicle: carboxymethylcellulose (CMC)): 94 % of control

SCc1ccccn1
T/C (dose: 62.0 mg/kg/injection, schedule: Q01DX007 (ip), vehicle: other): 117 % of control | T/C (dose: 125.0 mg/kg/injection, schedule: Q01DX007 (ip), vehicle: other): 103 % of control

CC1CCOS(=O)O1 (stereo not given)
T/C (dose: 6.25 mg/kg/injection, schedule: Q01DX007 (ip), vehicle: olive oil, sesame oil, peanut oil): 67 % of control | T/C (dose: 6.25 mg/kg/injection, schedule: Q01DX007 (ip), vehicle: propolene glycol): 62 % of control | T/C (dose: 6.25 mg/kg/injection, schedule: Q01DX007 (oral), vehicle: olive oil, sesame oil, peanut oil): 81 % of control | T/C (dose: 6.25 mg/kg/injection, schedule: Q01DX007 (sc), vehicle: olive oil, sesame oil, peanut oil): 81 % of control | T/C (dose: 12.5 mg/kg/injection, schedule: Q01DX007 (ip), vehicle: olive oil, sesame oil, peanut oil): 85 % of control | T/C (dose: 12.5 mg/kg/injection, schedule: Q01DX007 (ip), vehicle: propolene glycol): 55 % of control | T/C (dose: 12.5 mg/kg/injection, schedule: Q01DX007 (oral), vehicle: olive oil, sesame oil, peanut oil): 106 % of control | T/C (dose: 12.5 mg/kg/injection, schedule: Q01DX007 (oral), vehicle: propolene glycol): 74 % of control | T/C (dose: 12.5 mg/kg/injection, schedule: Q01DX007 (sc), vehicle: olive oil, sesame oil, peanut oil): 97 % of control | T/C (dose: 25.0 mg/kg/injection, schedule: Q01DX007 (ip), vehicle: olive oil, sesame oil, peanut oil): 75 % of control | T/C (dose: 25.0 mg/kg/injection, schedule: Q01DX007 (ip), vehicle: propolene glycol): 62 % of control | T/C (dose: 25.0 mg/kg/injection, schedule: Q01DX007 (oral), vehicle: olive oil, sesame oil, peanut oil): 79 % of control | T/C (dose: 25.0 mg/kg/injection, schedule: Q01DX007 (oral), vehicle: propolene glycol): 80 % of control | T/C (dose: 25.0 mg/kg/injection, schedule: Q01DX007 (sc), vehicle: olive oil, sesame oil, peanut oil): 65 % of control | T/C (dose: 36.0 mg/kg/injection, schedule: Q01DX007 (ip), vehicle: carboxymethylcellulose (CMC)): 102 % of control | T/C (dose: 50.0 mg/kg/injection, schedule: Q01DX007 (ip), vehicle: olive oil, sesame oil, peanut oil): 48 % of control | T/C (dose: 50.0 mg/kg/injection, schedule: Q01DX007 (ip), vehicle: propolene glycol): 56 % of control | T/C (dose: 50.0 mg/kg/injection, schedule: Q01DX007 (oral), vehicle: olive oil, sesame oil, peanut oil): 71 % of control | T/C (dose: 50.0 mg/kg/injection, schedule: Q01DX007 (oral), vehicle: propolene glycol): 81 % of control | T/C (dose: 50.0 mg/kg/injection, schedule: Q01DX007 (sc), vehicle: olive oil, sesame oil, peanut oil): 66 % of control | T/C (dose: 54.0 mg/kg/injection, schedule: Q01DX007 (ip), vehicle: carboxymethylcellulose (CMC)): 84 % of control | T/C (dose: 81.0 mg/kg/injection, schedule: Q01DX007 (ip), vehicle: carboxymethylcellulose (CMC)): 57 % of control

CCOC(=O)C(N)CC(C)C (stereo not given)
T/C (dose: 250.0 mg/kg/injection, schedule: Q01DX007 (ip), vehicle: carboxymethylcellulose (CMC)): 101 % of control | T/C (dose: 500.0 mg/kg/injection, schedule: Q01DX007 (ip), vehicle: carboxymethylcellulose (CMC)): 120 % of control

Nc1nc2ncc(CNc3ccc(C(=O)NC(CCC(=O)O)C(=O)O)cc3)nc2c(=O)[nH]1 (stereo not given)
T/C (dose: 6.31 mg/kg/injection, schedule: Q01DX007 (ip), vehicle: carboxymethylcellulose (CMC)): 84 % of control | T/C (dose: 12.62 mg/kg/injection, schedule: Q01DX007 (ip), vehicle: carboxymethylcellulose (CMC)): 76 % of control | T/C (dose: 25.25 mg/kg/injection, schedule: Q01DX007 (ip), vehicle: carboxymethylcellulose (CMC)): 56 % of control | T/C (dose: 50.5 mg/kg/injection, schedule: Q01DX007 (ip), vehicle: carboxymethylcellulose (CMC)): 74 % of control

O=c1[nH]cc(C(F)(F)F)c(=O)[nH]1
T/C (dose: 200.0 mg/kg/injection, schedule: Q01DX007 (ip), vehicle: saline): 63 % of control | T/C (dose: 300.0 mg/kg/injection, schedule: Q01DX007 (ip), vehicle: saline): 73 % of control

CS(=O)(=O)OCCCCOS(C)(=O)=O
T/C (dose: 4.12 mg/kg/injection, schedule: Q#A X014 (ip), vehicle: carboxymethylcellulose (CMC)): 108 % of control | T/C (dose: 6.25 mg/kg/injection, schedule: Q#A X014 (ip), vehicle: carboxymethylcellulose (CMC)): 91 % of control | T/C (dose: 8.25 mg/kg/injection, schedule: Q#A X014 (ip), vehicle: carboxymethylcellulose (CMC)): 119 % of control | T/C (dose: 9.87 mg/kg/injection, schedule: Q01DX007 (ip), vehicle: carboxymethylcellulose (CMC)): 87 % of control | T/C (dose: 12.5 mg/kg/injection, schedule: Q#A X014 (ip), vehicle: carboxymethylcellulose (CMC)): 103 % of control | T/C (dose: 16.5 mg/kg/injection, schedule: Q#A X014 (ip), vehicle: carboxymethylcellulose (CMC)): 85 % of control | T/C (dose: 19.75 mg/kg/injection, schedule: Q01DX007 (ip), vehicle: carboxymethylcellulose (CMC)): 65 % of control | T/C (dose: 25.0 mg/kg/injection, schedule: Q#A X014 (ip), vehicle: carboxymethylcellulose (CMC)): 96 % of control | T/C (dose: 33.0 mg/kg/injection, schedule: Q#A X014 (ip), vehicle: carboxymethylcellulose (CMC)): 66 % of control | T/C (dose: 39.5 mg/kg/injection, schedule: Q01DX007 (ip), vehicle: carboxymethylcellulose (CMC)): 60 % of control
